From US9409923B2, “Drug-fluorophore complex for specific detection of tumor cells” (KOREA INSTITUTE OF SCIENCE AND TECHNOLOGY, priority 2013, dated 2016)

Legend:
[1] = in vivo; cited from earlier work
[2] = tested on: HCT-116 cells (colorectal cancer cells) including luciferase; test: Ex vivo imaging on liver sections excised from mice; format: in vivo; details: FIGS. 3a-3d
Experimental: (§1) Mice were anesthetized with intraperitoneal injection of ketamine and xylazine, and their abdomens were cut open. HCT-116 cells (colorectal cancer cells) including luciferase were added at a concentration of 1×10^6 cells to 20 μl saline solution and injected into the left lobe of the liver to induce tumors in the mice. Four weeks after cell injection, the tumors were imaged as follows:
(§2) The compounds of Synthesis Examples 1-5 were dissolved in PBS (pH 7.4) to prepare 25 μM solutions. Mice were anesthetized intraperitoneally and their abdomens were open. 50 μl of each of the compounds was dropped using a 100 μl pipette. After 3 min, fluorescence and luminescence were observed using an imaging system (IVIS®).
Similarly to the procedure described above, ex vivo imaging was performed on liver sections excised from mice. The results are shown in FIGS. 3a to 3d (3a and 3b: fluorescence and luminescence images of the fluorophore, respectively; 3c and 3d: fluorescence and luminescence images of the drug-fluorophore complex, respectively).

[3] = tested on: HCT-116 cells (colorectal cancer cells) including luciferase; test: Specific in vivo imaging of tumor cells (fluorescence vs luminescence, IVIS) in mouse liver tumors; parameters: species or system Mice; details: 25 μM in PBS (pH 7.4), 50 μl dropped on open abdomen, observed after 3 min; FIGS. 2a-2d
Experimental: as §1, §2
FIGS. 2a to 2d are images showing fluorescence (2a) and luminescence (2b) from the fluorophore to which toremifene was not bonded, and images showing fluorescence (2c) and luminescence (2d) from the complex of the present invention in which the fluorophore was bonded to toremifene.

SMILES | Volume of distribution [1] | fluorescence and luminescence in excised liver sections (ex vivo imaging) [2] | fluorescence in tumor-bearing liver compared with luminescence position [3]
CC1(C)S[C@@H]2[C@H](NC(=O)[C@H](N)c3ccccc3)C(=O)N2[C@H]1C(=O)O [Ampicillin] | 0.38 L/kg |  | 
CNCCOc1ccc(/C(=C(/CCCl)c2ccccc2)c2ccccc2)cc1 [N-desmethyltoremifene] | 8.3 L/kg |  | 
CC[N+]1=C(/C=C/C=C/C=C2/N(CCCCCC(=O)N(C)CCOc3ccc(/C(=C(/CCCl)c4ccccc4)c4ccccc4)cc3)c3ccc4c(S(=O)(=O)O)cc(S(=O)(=O)O)cc4c3C2(C)C)C(C)(C)c2c1ccc1c(S(=O)(=O)O)cc(S(=O)(=O)[O-])cc21 [Synthesis Example 3, N-desmethyl toremifene-FCR675 Carboxylic Acid Complex] |  | the same results of the in vivo imaging were observed in the ex vivo imaging | fluorescence was observed in the section of the liver, which was the same as the position confirmed by luminescence
